# Assay results reported in the supplement of paper PMC10733146.
# Assays:
# Experiment in all cases: viability relative to DMSO control (fraction); higher = less drug effect (more viable cells)
# Details in all cases: 48 h
# [1] = tested on: primary AML patient cells (S019)
# How it was run: (§1)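 Using 384-well plates with compounds already plated at five concentrations, one well per concentration, 4 × 10^4 primary mononuclear tumour cells were added per well. Cells were Ficoll-isolated from blood or bone marrow or came from processed lymph node, fresh or cryopreserved. They were kept for 48 h at 37 °C and 5% CO2 in RPMI-1640 supplemented with penicillin/streptomycin, L-glutamine and human serum, and viability was read as CellTiter-Glo luminescence relative to the median of 16 inner DMSO wells.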
# [2] = tested on: primary MCL patient cells (S041)
# How it was run: as §1
# [3] = tested on: primary CLL patient cells (S031)
# How it was run: as §1
# [4] = tested on: primary AML patient cells (S007)
# How it was run: as §1
# [5] = tested on: primary AML patient cells (S027)
# How it was run: as §1
# [6] = tested on: primary DLBCL patient cells (S082)
# How it was run: as §1
# [7] = tested on: primary AML patient cells (S091)
# How it was run: as §1
# [8] = tested on: primary AML patient cells (S085)
# How it was run: as §1
# [9] = tested on: primary AML patient cells (S037)
# How it was run: as §1
# [10] = tested on: primary AML patient cells (S089)
# How it was run: as §1
# [11] = tested on: primary AML patient cells (S060)
# How it was run: as §1
# [12] = tested on: primary B-PLL patient cells (S016)
# How it was run: as §1
# [13] = tested on: primary AML patient cells (S071)
# How it was run: as §1
# [14] = tested on: primary ALL patient cells (S088)
# How it was run: as §1
# [15] = tested on: primary AML patient cells (S011)
# How it was run: as §1
# [16] = tested on: primary FL patient cells (S087)
# How it was run: as §1
structure (smiles),measurement,setting,value
CN1CC[C@H](c2c(O)cc(O)c3c(=O)cc(-c4ccccc4Cl)oc23)[C@H](O)C1 [Flavopiridol],viability,[1]; 0.0032 µM,1.08
same,viability,[1]; 0.016 µM,0.769
same,viability,[1]; 0.08 µM,0.961
same,viability,[1]; 0.4 µM,0.198
same,viability,[1]; 2 µM,0.0784
same,viability,[2]; 0.0032 µM,1.01
same,viability,[2]; 0.016 µM,0.914
same,viability,[2]; 0.08 µM,0.892
same,viability,[2]; 0.4 µM,0.0723
same,viability,[2]; 2 µM,0.0378
same,viability,[3]; 0.0032 µM,1.04
same,viability,[3]; 0.016 µM,0.914
same,viability,[3]; 0.08 µM,0.963
same,viability,[3]; 0.4 µM,0.0407
same,viability,[3]; 2 µM,0.0147
same,viability,[4]; 0.0032 µM,0.945
same,viability,[4]; 0.016 µM,0.68
same,viability,[4]; 0.08 µM,0.624
same,viability,[4]; 0.4 µM,0.127
same,viability,[4]; 2 µM,0.0782
same,viability,[5]; 0.0032 µM,1.04
same,viability,[5]; 0.016 µM,0.947
same,viability,[5]; 0.08 µM,0.842
same,viability,[5]; 0.4 µM,0.0906
same,viability,[5]; 2 µM,0.0365
same,viability,[6]; 0.0032 µM,1.03
same,viability,[6]; 0.016 µM,0.977
same,viability,[6]; 0.08 µM,1.11
same,viability,[6]; 0.4 µM,0.103
same,viability,[6]; 2 µM,0.0254
same,viability,[7]; 0.0032 µM,0.917
same,viability,[7]; 0.016 µM,0.921
same,viability,[7]; 0.08 µM,0.604
same,viability,[7]; 0.4 µM,0.113
same,viability,[7]; 2 µM,0.0958
same,viability,[8]; 0.0032 µM,0.86
same,viability,[8]; 0.016 µM,0.858
same,viability,[8]; 0.08 µM,0.651
same,viability,[8]; 0.4 µM,0.0968
same,viability,[8]; 2 µM,0.0387
same,viability,[9]; 0.0032 µM,0.979
same,viability,[9]; 0.016 µM,0.948
same,viability,[9]; 0.08 µM,0.914
same,viability,[9]; 0.4 µM,0.633
same,viability,[9]; 2 µM,0.328
same,viability,[10]; 0.0032 µM,0.742
same,viability,[10]; 0.016 µM,1.01
same,viability,[10]; 0.08 µM,0.362
same,viability,[10]; 0.4 µM,0.0371
same,viability,[10]; 2 µM,0.0437
same,viability,[11]; 0.0032 µM,0.949
same,viability,[11]; 0.016 µM,0.937
same,viability,[11]; 0.08 µM,0.848
same,viability,[11]; 0.4 µM,0.127
same,viability,[11]; 2 µM,0.0228
same,viability,[12]; 0.0032 µM,0.932
same,viability,[12]; 0.016 µM,0.862
same,viability,[12]; 0.08 µM,0.959
same,viability,[12]; 0.4 µM,0.217
same,viability,[12]; 2 µM,0.0227
same,viability,[13]; 0.0032 µM,0.914
same,viability,[13]; 0.016 µM,0.833
same,viability,[13]; 0.08 µM,0.54
same,viability,[13]; 0.4 µM,0.0926
same,viability,[13]; 2 µM,0.0942
same,viability,[14]; 0.0032 µM,0.955
same,viability,[14]; 0.016 µM,0.916
same,viability,[14]; 0.08 µM,1.08
same,viability,[14]; 0.4 µM,0.0921
same,viability,[14]; 2 µM,0.0295
same,viability,[15]; 0.0032 µM,0.859
same,viability,[15]; 0.016 µM,0.754
same,viability,[15]; 0.08 µM,0.715
same,viability,[15]; 0.4 µM,0.0633
same,viability,[15]; 2 µM,0.0225
same,viability,[16]; 0.0032 µM,0.967
same,viability,[16]; 0.016 µM,0.91
same,viability,[16]; 0.08 µM,1
same,viability,[16]; 0.4 µM,0.644
same,viability,[16]; 2 µM,0.638
CCc1cnn2c(NCc3ccc[n+]([O-])c3)cc(N3CCCC[C@H]3CCO)nc12 [Dinaciclib],viability,[1]; 0.0016 µM,1.31
same,viability,[1]; 0.008 µM,0.54
same,viability,[1]; 0.04 µM,0.114
same,viability,[1]; 0.2 µM,0.116
same,viability,[1]; 1 µM,0.126
same,viability,[2]; 0.0016 µM,0.938
same,viability,[2]; 0.008 µM,0.0691
same,viability,[2]; 0.04 µM,0.0382
same,viability,[2]; 0.2 µM,0.0378
same,viability,[2]; 1 µM,0.0402
same,viability,[3]; 0.0016 µM,0.744
same,viability,[3]; 0.008 µM,0.0197
same,viability,[3]; 0.04 µM,0.018
same,viability,[3]; 0.2 µM,0.0169
same,viability,[3]; 1 µM,0.0188
same,viability,[4]; 0.0016 µM,0.637
same,viability,[4]; 0.008 µM,0.175
same,viability,[4]; 0.04 µM,0.118
same,viability,[4]; 0.2 µM,0.12
same,viability,[4]; 1 µM,0.141
same,viability,[5]; 0.0016 µM,1.05
same,viability,[5]; 0.008 µM,0.12
same,viability,[5]; 0.04 µM,0.0422
same,viability,[5]; 0.2 µM,0.0393
same,viability,[5]; 1 µM,0.0395
same,viability,[6]; 0.0016 µM,0.98
same,viability,[6]; 0.008 µM,0.102
same,viability,[6]; 0.04 µM,0.0294
same,viability,[6]; 0.2 µM,0.0307
same,viability,[6]; 1 µM,0.0332
same,viability,[7]; 0.0016 µM,1.07
same,viability,[7]; 0.008 µM,0.171
same,viability,[7]; 0.04 µM,0.0777
same,viability,[7]; 0.2 µM,0.076
same,viability,[7]; 1 µM,0.0799
same,viability,[8]; 0.0016 µM,1
same,viability,[8]; 0.008 µM,0.11
same,viability,[8]; 0.04 µM,0.0634
same,viability,[8]; 0.2 µM,0.0552
same,viability,[8]; 1 µM,0.0573
same,viability,[9]; 0.0016 µM,1.04
same,viability,[9]; 0.008 µM,0.903
same,viability,[9]; 0.04 µM,0.39
same,viability,[9]; 0.2 µM,0.38
same,viability,[9]; 1 µM,0.374
same,viability,[10]; 0.0016 µM,0.929
same,viability,[10]; 0.008 µM,0.0524
same,viability,[10]; 0.04 µM,0.0434
same,viability,[10]; 0.2 µM,0.0447
same,viability,[10]; 1 µM,0.0498
same,viability,[11]; 0.0016 µM,1.12
same,viability,[11]; 0.008 µM,0.0838
same,viability,[11]; 0.04 µM,0.0221
same,viability,[11]; 0.2 µM,0.0219
same,viability,[11]; 1 µM,0.0206
same,viability,[12]; 0.0016 µM,1.07
same,viability,[12]; 0.008 µM,0.047
same,viability,[12]; 0.04 µM,0.0409
same,viability,[12]; 0.2 µM,0.0324
same,viability,[12]; 1 µM,0.0324
same,viability,[13]; 0.0016 µM,0.966
same,viability,[13]; 0.008 µM,0.105
same,viability,[13]; 0.04 µM,0.107
same,viability,[13]; 0.2 µM,0.0985
same,viability,[13]; 1 µM,0.0952
same,viability,[14]; 0.0016 µM,0.644
same,viability,[14]; 0.008 µM,0.0942
same,viability,[14]; 0.04 µM,0.0343
same,viability,[14]; 0.2 µM,0.0308
same,viability,[14]; 1 µM,0.0318
same,viability,[15]; 0.0016 µM,1.23
same,viability,[15]; 0.008 µM,0.155
same,viability,[15]; 0.04 µM,0.0402
same,viability,[15]; 0.2 µM,0.0329
same,viability,[15]; 1 µM,0.0263
same,viability,[16]; 0.0016 µM,0.962
same,viability,[16]; 0.008 µM,0.641
same,viability,[16]; 0.04 µM,0.759
same,viability,[16]; 0.2 µM,0.756
same,viability,[16]; 1 µM,0.829
